The source of these data is US12253513B2, “Methods and compositions for the selective lysis of blood cells and separation of microbial cells” (QVELLA CORPORATION, priority 2018, dated 2025).

Where only a bound is given, the exact number is not on record here.

Assay [1] deals with Pseudomonas aeruginosa (PA), Proteus mirabilis (PM), and Staphylococcus aureus (SA). Briefly: Microbial cell intactness: ΔCT by real-time RT-PCR, spiked whole blood samples. The note with it: 0.94% w/v detergent in type 3 reagent/blood mixture; all three species. It counts as cell-based.
The test system is the same in assay [2]. Briefly: Microbial cell intactness: ΔCT by real-time RT-PCR, spiked phosphate buffer samples. It is filed as cell-based. The settings on record: Triton X-100 0-0.75% w/v with SPS 15 mg/mL, no high pH; all cell types. As to the method: The effect of Triton X-100, one of the components of the type 2 blood lysis reagent, on microbial cell intactness, was experimentally investigated in the absence of a high pH environment (e.g. in the absence of a carbonate-bicarbonate buffer). Experiments were performed by contacting spiked phosphate buffer samples containing Pseudomonas aeruginosa (PA), Proteus mirabilis (PM), and Staphylococcus aureus (SA), prepared according to Example 3 below, with solutions containing Triton X-100 and SPS, such that the final concentrations of Triton X-100 in the various samples were 0, 0.188, 0.375, 0.55 and 0.75% w/v, and the SPS concentration was 15 mg/mL. Sample preparation and real time RT-PCR was performed according to the methods provided in Example 5 below. Spiked phosphate buffer samples, prepared according to the method of Example 3 below, were also prepared for spiked control and subjected to real time RT-PCR according to the method of Example 4 below. The ΔCT value, determined based on the difference between the spiked phosphate buffer sample CT value and the spiked control CT value, was employed as a proxy for microbial cell intactness after exposure to Triton X-100.
Bacterial cell suspension stock of 50 μL, having about 10^3 CFU of respective bacterial cells was added to 5 mL of 1 mM Phosphate Buffer (PB) and mixed by gentle vortexing. […]

For the molecule `CCCCCCCCCCCC(=O)OCCOCCOCCOCCOCCOCCOCCOCCOCCOCCOCCOCCOCCOCCOCCOCCOCCOCCOCCOCCOCC(OCCOCCOCCOCCOCCOCCOCCOCCOCCOCCOCCOCCOCCOCCOCCOCCOCCOCCOCCOCCO)C1OCC(OCCOCCOCCOCCOCCOCCOCCOCCOCCOCCOCCOCCOCCOCCOCCOCCOCCOCCOCCOCCO)C1OCCOCCOCCOCCOCCOCCOCCOCCOCCOCCOCCOCCOCCOCCOCCOCCOCCOCCOCCOCCO` (centres unmarked) [Tween 20, Polysorbate 20], the “ΔCT, Tween 20 compared with Triton X-100 as non-ionic detergent” value in assay [1] is given as “very similar”. Regarding “polyethylene glycol p-(1,1,3,3-tetramethylbutyl)-phenyl ether [Triton X-100]”, in assay [2], the ΔCT is reported as at most 2.
